Key:
[1] = system: mature adipocytes (3T3-L1 cells); test: Enhancing action on glucose uptake (2-deoxyglucose) into mature adipocytes; type: cell-based; conditions: Mus musculus, 3T3-L1, X=(S−N)/(P−N) of 2-deoxyglucose uptake, P=insulin 1 μg/mL, read-out: Enhancing Action on Glucose Uptake
Experimental: The induction of differentation into nature adipocytes was carried out by partially modifying the above-mentioned method of Rubin C. S. et al. 3T3-L1 cells (ATCC CCL-92.1) were suspended in a 10% fetal bovine serum (manufactured by Bio Whittaker)-containing Dulbecco's modified Eagle's medium (manufactured by Sigma, D6046) containing 200 μM ascorbic acid so as to have a density of 4×10^3 cells/mL, and the suspension was put in each well of a collagen type I-coated 12-well plate (Iwaki Glass Co., Ltd., code 4815-010) in an amount of 2 mL per well. The cells were cultured at 37° C. for 7 days in the presence of 5% carbon dioxide gas. On the seventh day, the medium was exchanged with 2 mL of a 10% fetal bovine serum (manufactured by Bio Whittaker)-containing Dulbecco's modified Eagle's medium containing 200 μM ascorbic acid, 0.25 μM dexamethasone, 10 μg/mL insulin (manufactured by TAKARA BIO INC.) and 0.5 mM 3-isobutyl-1-methylxanthine (manufactured by nacalai tesque, 19624-86). After 45 hours, the medium was exchanged with 2 mL of a 10% fetal bovine serum-containing Dulbecco's modified Eagle's medium containing 200 μM ascorbic acid and 5 μg/mL insulin. The medium was exchanged on after 2 days and 5 days, and the cells were cultured for 7 days, to give mature adipocytes.
As the evaluation of the enhancing action on glucose uptake, and also as the evaluation of the insulin-mimetic action, the amount of 2-deoxyglucose uptake into mature adipocytes during the stimulation of the test compound in the adipocytes was determined. As a test compound, a compound prepared in the Examples mentioned above or a commercially available compound was used.
After the termination of the culture, the medium was removed, and the cells were washed twice with a 0.1% (w/v) bovine serum albumin (manufactured by Sigma, A8022)-containing Dulbecco's modified Eagle's medium. Thereafter, 1 mL of the same medium containing a test compound in a concentration shown in each of Tables 20 to 23 was put to each well. The cells were cultured overnight at 37° C. in the presence of 5% carbon dioxide gas. Here, a group without containing the test compound was set as a negative control. After the overnight culture, the cells were washed twice with a HEPES buffer (140 mM NaCl, 5 mM KCl, 2.5 mM MgSO4, 1 mM CaCl2, 20 mM HEPES-Na (pH 7.4)). The amount 0.9 mL of the buffer containing a test compound in the same concentration was added to each well. The cells were cultured at 37° C. for 75 minutes. During the culture, as a positive control, there was set a group with addition of insulin to the well without addition of a test compound at a point 45 minutes passed so as to have a final concentration of 1 μg/mL. Thereafter, 100 μL of a HEPES buffer containing 0.5 μCi/mL 2-deoxy-[1,2-^3H(N)]-glucose (manufactured by PerkinElmer Life Sciences Inc., NET549A) and 1 mM 2-deoxyglucose (manufactured by nacalai tesque, 10722-11) was added thereto. The cells were cultured at 37° C. for additional 10 minutes. After the termination of the culture, the supernatant was removed, and the cells were washed three times with a phosphate buffer cooled to 4° C. Thereafter, 0.5 mL of a 1% Nonidet P-40-containing phosphate buffer was added to lyse the cells, whereby 2-deoxy-[1,2-^3H(N)]-glucose subjected to uptake into the cells was eluted. The radioactivity was determined with a liquid scintillation counter LS6500 (manufactured by Beckmann) using 25 μL of the supernatant with Ultima Gold (manufactured by PerkinElmer Life Sciences Inc., 6013329) as a scintillation cocktail. The enhancing action on glucose uptake was calculated by the following calculation formula, and shown by four ranks of +++, ++, + and +/−. • S: Amount of 2-deoxyglucose uptake in the presence of a test compound; • N: Amount of 2-deoxyglucose uptake in the negative control; and • P: Amount of 2-deoxyglucose uptake in the positive control; X=(S−N)/(P−N) (Judgment of Enhancing Action for 2-Deoxyglucose Uptake)

3T3-L1 cells = test: Induction of adipocyte differentiation (amount of triglyceride biosynthesis); type: cell-based; conditions: Mus musculus, 3T3-L1, X=(S−N)/(P−N) of amount of triglyceride, P=insulin positive control, read-out: Action for Induction of Differentiation
Summary of the method: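 3T3-L1 cells were grown 7 days in DMEM/10% FBS/200 μM ascorbic acid, then given test compound with 0.25 μM dexamethasone for 45 h, then compound alone for 7 days, re-dosed at medium changes. Hexane:isopropanol-extracted triglyceride was measured in duplicate; X=(S−N)/(P−N) versus DMSO (N) and insulin (P), ranked +++ to +/−.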

Row | Structure (SMILES) | activation at 3 µM [1] | activation at 10 µM [1] | activation at 3 µM (3T3-L1 cells) | activation at 10 µM (3T3-L1 cells) | activation at 30 µM [1] | activation at 1.3 µM (3T3-L1 cells; 1.3 μM) | activation at 4 µM (3T3-L1 cells) | activation at 13 µM (3T3-L1 cells) | activation at 1 µM (3T3-L1 cells) | activation at 30 µM (3T3-L1 cells)
1 | CC(C)=CCCC(C)(O)C1Cc2c(ccc(C(=O)/C=C/c3ccc(O)cc3)c2O)O1 (stereo not shown) [TB3, 1-[2,3-dihydro-4-hydroxy-2-(1-hydroxy-1,5-dimethyl-4-hexenyl)-benzofuran-5-yl]-3-(4-hydroxyphenyl)-2-propen-1-one] | 30 to 60% | > 100% | > 100% | > 100% | – | – | – | – | – | –
2 | COc1ccc(C(=O)/C=C/c2ccc(O)cc2)c(OCc2ccccc2)c1CC=C(C)C [Compound (C077), 4-hydroxy-2′-benzyloxy-3′-prenyl-4′-methoxychalcone] | – | 30 to 60% | 30 to 60% | – | 30 to 60% | – | – | – | – | –
3 | COc1ccc(C(C)=O)c(O)c1CC=C(C)C [Compound (C026), 2′-hydroxy-3′-prenyl-4′-methoxyacetophenone] | 15 to 30% | 30 to 60% | – | – | 30 to 60% | 30 to 60% | 60 to 100% | 60 to 100% | – | –
4 | COc1ccc(C(=O)/C=C/c2ccc(Cl)cc2)c(OC(C)=O)c1C/C=C(\C)CCC=C(C)C [Compound (C080), 4-chloro-2′-acetoxy-3′-geranyl-4′-methoxychalcone] | – | 30 to 60% | > 100% | > 100% | 60 to 100% | – | – | – | 60 to 100% | –
5 | COc1ccc(C(=O)/C=C/c2cccc([N+](=O)[O-])c2)c(O)c1CC=C(C)C [Compound (C076), 3-nitro-2′-hydroxy-3′-prenyl-4′-methoxychalcone] | 15 to 30% | 30 to 60% | > 100% | > 100% | > 100% | – | – | – | 60 to 100% | –
6 | COc1ccc(C(=O)/C=C/c2ccc(Cl)cc2)c(OC(C)=O)c1CC=C(C)C [Compound (C079), 4-chloro-2′-acetoxy-3′-prenyl-4′-methoxychalcone] | > 100% | 60 to 100% | 60 to 100% | > 100% | > 100% | – | – | – | – | –
7 | CCOc1ccc(C(C)=O)c(O)c1CC=C(C)C [Compound (C047), 2′-hydroxy-3′-prenyl-4′-ethoxyacetophenone] | 30 to 60% | 60 to 100% | – | 30 to 60% | > 100% | – | – | – | – | 60 to 100%
8 | COc1ccc(C(C)=O)c(O)c1CCC(C)C [Compound (C041), 2′-hydroxy-3′-(3-methylbutyl)-4′-methoxyacetophenone] | – | – | 30 to 60% | > 100% | > 100% | – | – | – | – | –
9 | CCOc1ccc(C(=O)/C=C/c2ccc(O)cc2)c(O)c1CC=C(C)C [Compound (C049), 4,2′-dihydroxy-3′-prenyl-4′-ethoxychalcone] | – | 30 to 60% | 15 to 30% | 15 to 30% | > 100% | – | – | – | – | –
10 | COc1ccc(C(C)=O)c(O)c1C/C=C(\C)CC/C=C(\C)CCC=C(C)C [Compound (C052), 2′-hydroxy-3′-farnesyl-4′-methoxyacetophenone] | 15 to 30% | 30 to 60% | – | 30 to 60% | 30 to 60% | – | – | – | – | –
11 | C=C(C)C(CC/C(C)=C/Cc1c(OC)ccc(C(=O)/C=C/c2ccc(O)cc2)c1O)OO (stereo not shown) [TB9, 1-[2-hydroxy-3-(6-hydroperoxy-3,7-dimethyl-2,7-octadienyl)-4-methoxyphenyl]-3-(4-hydroxyphenyl)-2-propen-1-one] | 15 to 30% | 15 to 30% | – | > 100% | 30 to 60% | – | – | – | – | –
12 | CC(=O)c1ccc(OCC=C(C)C)cc1C [Compound (C059), 2′-methyl-4′-prenyloxyacetophenone] | – | 15 to 30% | 15 to 30% | 30 to 60% | 30 to 60% | – | – | – | – | > 100%
13 | CC(=O)c1ccc(OC2CCCCO2)c(CC=C(C)C)c1O (stereo not shown) [Compound (C044), 2′-hydroxy-3′-prenyl-4′-tetrahydropyranyloxyacetophenone] | – | 30 to 60% | 30 to 60% | 60 to 100% | > 100% | – | – | – | – | –
14 | COc1ccc(C(C)=O)c(O)c1Cc1ccccc1 [Compound (C055), 2′-hydroxy-3′-benzyl-4′-methoxyacetophenone] | 15 to 30% | 30 to 60% | 15 to 30% | 30 to 60% | 60 to 100% | – | – | – | – | –
15 | COc1ccc(/C=C/C(=O)c2ccc(OC)c(CC=C(C)C)c2O)cc1 [Compound (C035), 4,4′-dimethoxy-2′-hydroxy-3′-prenylchalcone] | – | 30 to 60% | 60 to 100% | > 100% | 60 to 100% | – | – | – | – | –
16 | COc1cc(O)c(C(=O)/C=C/c2ccc(O)cc2)cc1CC=C(C)C [Bavachalcone, 4,2′-Dihydroxy-4′-methoxy-5′-prenylchalcone] | – | 30 to 60% | – | – | > 100% | – | 15 to 30% | 30 to 60% | – | –
17 | COc1ccc(C(=O)/C=C/c2ccc(O)cc2)c(O)c1Cc1ccccc1 [Compound (C056), 4,2′-dihydroxy-3′-benzyl-4′-methoxychalcone] | 15 to 30% | > 100% | 30 to 60% | > 100% | > 100% | – | – | – | 15 to 30% | –
18 | COc1ccc(C(=O)/C=C/c2ccc(O)cc2)c(O)c1 [Compound (C020), 4,2′-dihydroxy-4′-methoxychalcone] | – | 30 to 60% | – | – | 60 to 100% | – | 30 to 60% | 60 to 100% | – | –
19 | COc1ccc(C(C)=O)c(O)c1C/C=C(\C)CCC=C(C)C [Compound (C038), 2′-hydroxy-3′-geranyl-4′-methoxyacetophenone] | – | 30 to 60% | 30 to 60% | > 100% | 60 to 100% | – | – | – | – | –

Source: patent US20070092551A1, “Therapeutic agent” (TAKARA BIO INC., priority 2003, published 2007)
